System: Ishikawa human endometrial tumor cells
Experiment: Ishikawa alkaline phosphatase assay
Type: cell-based
Conditions: for EC50: Homo sapiens, Ishikawa; for EC50 / Agonist % Eff: agonist mode; for Agonist % Eff: % efficacy versus the response to Tamoxifen; for Antagonist % Eff: antagonist mode, % efficacy versus E2 (1 nM) alone
Description: Ishikawa Alkaline Phosphatase Assay
Ishikawa human endometrial tumor cells are maintained in MEM (minimum essential medium, with Earle's salts and L-Glutamine, Gibco BRL, Gaithersburg, Md.), supplemented with 10% fetal bovine serum (FBS) (V/V), (Gibco BRL). One day prior to assay, growth media is changed to assay medium, DMEM/F-12 (3:1) (Dulbecco's Modified Eagle Medium: Nutrient Mixture F-12, 3:1 Mixture, phenol red-free, Gibco BRL) supplemented with 5% dextran coated charcoal stripped fetal bovine serum (DCC-FBS) (Hyclone, Logen, Utah), L-Glutamine (2 mM), MEM sodium pyruvate (1 mM), HEPES (N-[2-hydroxyethyl]piperazine-N′-[2-ethanesulfonic acid] 2 mM) all from Gibco BRL). After an overnight incubation, ishikawa cells are rinsed with Dulbecco's Phosphate Buffered Saline (1×) (D-PBS) without Ca^+2 and Mg^+2 (Gibco BRL), and trypsinized by a 3 minute incubation with 0.25% Trypsin/EDTA, phenol red-free (Gibco BRL). Cells are resuspended in assay medium and adjusted to 250,000 cells/ml. Approximately 25,000 cells in a 100 ul media are added to flat-bottom 96 wells microculture plates (Costar 3596) and incubated at 37° C. in a 5% CO2 humidified incubator for 24 hours. The next day, serial dilutions of compounds are prepared in assay medium (at 6 times the final concentration in the assay). The assay is run in dual mode, agonist and antagonist modes. For the agonist mode, plates receive 25 μl/well of assay medium followed by 25 μl/well of diluted compounds (at 6× the final concentrations). For the antagonist mode, plates receive 25 μl/well of 6 nM E2 (β-Estradiol, Sigma, St. Louis, Mo.) followed by 25 μl/well of diluted compounds (at 6× the final concentrations). After an additional 48-hour incubation at 37° C. in a 5% CO2 humidified incubator, media is aspirated from wells and 100 μl fresh assay medium is added to each microculture. Serial dilutions of compounds are prepared and added to the cells as described above. After an additional 72 hour incubation at 37° C. in a 5% CO2 humidified incubator, the assay is quenched by removing media and rinsing plates twice in Dulbecco's Phosphate Buffered Saline (1×) (D-PBS) (Gibco BRL). The plates are dried for 5 min and frozen at −70° C. for at least 1 hour. The plates are then removed from the freezer and allowed to thaw at room temperature. To each well, 100 μl of 1-Step™ PNPP (Pierce Chemical Company, Rockford, Ill.) is added. After a 20-minute incubation, plates are read on a spectophotometer at 405 nm. The data is fitted to a linear interpolation to derive EC50 (for agonist mode) or IC50 (for antagonist mode) values. For the agonist mode, a % efficacy for each compound is calculated versus the response to Tamoxifen. For the antagonist mode, a % efficacy for each compound is calculated versus E2 (1 nM) alone.

| Compound | EC50 | Agonist % Eff | Antagonist % Eff |
| --- | --- | --- | --- |
| Oc1ccc(C2CCc3cc(O)ccc3N2c2ccc(OCCN3CCCC3)cc2)cc1 (stereo not drawn) [Example 4] | 161 nM | 36% | 40% |
| Oc1ccc(C2CCc3cc(O)ccc3N2c2ccc(OCCN3CCCCC3)cc2)cc1 (stereo not drawn) [Example 3] | 262 nM | 117% | −0.2% |
